# In article PMC8998978, “Toward a Treatment of Cancer: Design and In Vitro/In Vivo Evaluation of Uncharged Pyrazoline Derivatives as a Series of Novel SHP2 Inhibitors” (International Journal of Molecular Sciences, 2022):
# Target: T1, recombinant human SHP2 protein (Homo sapiens, UniProt Q06124)
# T1 sequence (Q06124 1-593): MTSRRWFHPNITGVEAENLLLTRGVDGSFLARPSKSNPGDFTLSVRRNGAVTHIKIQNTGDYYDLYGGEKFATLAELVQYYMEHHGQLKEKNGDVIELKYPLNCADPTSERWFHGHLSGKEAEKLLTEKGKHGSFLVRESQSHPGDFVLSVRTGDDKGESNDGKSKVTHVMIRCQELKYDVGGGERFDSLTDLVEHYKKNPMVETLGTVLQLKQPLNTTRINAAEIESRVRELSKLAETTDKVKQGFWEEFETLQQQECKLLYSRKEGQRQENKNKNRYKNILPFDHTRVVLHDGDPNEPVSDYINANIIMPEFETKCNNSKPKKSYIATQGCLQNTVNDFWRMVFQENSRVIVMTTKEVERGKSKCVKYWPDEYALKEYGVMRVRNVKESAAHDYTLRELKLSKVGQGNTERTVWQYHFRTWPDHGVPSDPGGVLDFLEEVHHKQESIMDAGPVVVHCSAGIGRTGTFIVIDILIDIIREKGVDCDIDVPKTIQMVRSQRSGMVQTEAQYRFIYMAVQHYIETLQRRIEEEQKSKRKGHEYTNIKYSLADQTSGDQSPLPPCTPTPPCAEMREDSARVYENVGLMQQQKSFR
# Test: SHP2 inhibition assay (pNPP substrate)
# Assay type: biochemical
# Conditions: pNPP 4 mM, SHP2 240 nM, 37 °C, 30 min; means ± SD
# Method: pGEX-4T1 SHP2 WT (plasmid #8322) was purchased from Addgene. […] Then, 0.2 mM IPTG (Sangon Biotech, Shanghai, China) was added to induce the expression of protein at 30 °C for 4 h followed by centrifugation and cells collection. Cells were then broken by ultrasound in lysis buffer (20 mM Tris–HCl (pH 8.0), 100 mM KCl, 10% glycerol, 1 mM DTT, 0.5% Triton X-100) on ice. The supernatant was collected by centrifugation at 10,000× g for 15 min at 4 °C. The BeaverBeads GSH (Beaver Biosciences Inc., Guangzhou, China) washed by lysis buffer were incubated with the supernatant for 2 h at 4 °C. […] Then, the experiment was performed in a final volume of 100 μL containing 10 mM Tris–HCl (pH 7.5), 25 mM NaCl, 1 mM EDTA and 4 mM pNPP in a 96-well plate at 37 °C for 30 min. The amount of product p-nitrophenol was determined by the absorbance at 405 nm in a multimode reader (Berthold Technologies GmbH & Co.KG, Bad Wildbad, Baden Württemberg, Germany). The IC50 value was calculated by GraphPad Prism 7.0 software (GraphPad Inc, San Diego, CA, USA).
row,Compound,IC50 [µM]
1,"CCOc1ccc(Oc2ccc(C3=NN(C=O)C(c4ccc(O)c(O)c4)C3)cc2)cc1 (stereo not drawn) [Compound 4a, 5-(3,4-dihydroxyphenyl)-3-(4-(4-ethoxyphenoxy)phenyl)-4,5-dihydro-1H-pyrazole-1-carbaldehyde]",13.3 ± 2.11
2,"CC(C)(C)c1ccc(Oc2ccc(C3=NN(C=O)C(c4ccc(O)c(O)c4)C3)cc2)cc1 (stereo not drawn) [Compound 4b, 3-(4-(4-(tert-butyl)phenoxy)phenyl)-5-(3,4-dihydroxyphenyl)-4,5-dihydro-1H-pyrazole-1-carbaldehyde]",13.7 ± 1.98
3,"CCC(=O)N1N=C(c2ccc(Oc3ccccc3)cc2)CC1c1ccc(O)c(O)c1 (stereo not drawn) [Compound 4c, 1-(5-(3,4-dihydroxyphenyl)-3-(4-phenoxyphenyl)-4,5-dihydro-1H-pyrazol-1-yl)propan-1-one]",34.2 ± 5.9
4,"CCCC(=O)N1N=C(c2ccc(Oc3ccccc3)cc2)CC1c1ccc(O)c(O)c1 (stereo not drawn) [Compound 4d, 1-(5-(3,4-dihydroxyphenyl)-3-(4-phenoxyphenyl)-4,5-dihydro-1H-pyrazol-1-yl)butan-1-one]",9.51 ± 2.01
5,"CCOc1ccc(Oc2ccc(C3=NN(C(N)=S)C(c4ccc(O)c(O)c4)C3)cc2)cc1 (stereo not drawn) [Compound 4e, 5-(3,4-dihydroxyphenyl)-3-(4-(4-ethoxyphenoxy)phenyl)-4,5-dihydro-1H-pyrazole-1-carbothioamide]",5.96 ± 0.92
6,"COc1ccc(C2=NN(C(N)=S)C(c3ccc(O)c(O)c3)C2)cc1 (stereo not drawn) [Compound 4f, 5-(3,4-dihydroxyphenyl)-3-(4-methoxyphenyl)-4,5-dihydro-1H-pyrazole-1-carbothioamide]",13.2 ± 1.89
7,"NC(=S)N1N=C(c2ccc(Oc3ccccc3)cc2)CC1c1ccc(O)c(O)c1 (stereo not drawn) [Compound 4g, 5-(3,4-dihydroxyphenyl)-3-(4-phenoxyphenyl)-4,5-dihydro-1H-pyrazole-1-carbothioamide]",5.97 ± 0.88
8,"CC(C)(C)c1ccc(Oc2ccc(C3=NN(C(N)=S)C(c4ccc(O)c(O)c4)C3)cc2)cc1 (stereo not drawn) [Compound 4h, 3-(4-(4-(tert-butyl)phenoxy)phenyl)-5-(3,4-dihydroxyphenyl)-4,5-dihydro-1H-pyrazole-1-carbothioamide]",8.44 ± 2.03
9,"NC(=S)N1N=C(c2ccc(Br)cc2)CC1c1ccc(O)c(O)c1 (stereo not drawn) [Compound 4i, 3-(4-bromophenyl)-5-(3,4-dihydroxyphenyl)-4,5-dihydro-1H-pyrazole-1-carbothioamide]",20.4 ± 2.45
10,"COc1ccc(C2=NN(C3=NC(=O)CS3)C(c3ccc(O)c(O)c3)C2)cc1 (stereo not drawn) [Compound 4j, 2-(5-(3,4-dihydroxyphenyl)-3-(4-methoxyphenyl)-4,5-dihydro-1H-pyrazol-1-yl)thiazol-4(5H)-one]",11.4 ± 1.56
11,"O=C1CSC(N2N=C(c3ccc(Oc4ccccc4)cc3)CC2c2ccc(O)c(O)c2)=N1 (stereo not drawn) [Compound 4k, 2-(5-(3,4-dihydroxyphenyl)-3-(4-phenoxyphenyl)-4,5-dihydro-1H-pyrazol-1-yl)thiazol-4(5H)-one]",4.98 ± 0.77
12,"CCOc1ccc(Oc2ccc(C3=NN(C4=NC(=O)CS4)C(c4ccc(O)c(O)c4)C3)cc2)cc1 (stereo not drawn) [Compound 4l, 2-(5-(3,4-dihydroxyphenyl)-3-(4-(4-ethoxyphenoxy)phenyl)-4,5-dihydro-1H-pyrazol-1-yl)thiazol-4(5H)-one]",4.36 ± 0.65
13,"CC(C)(C)c1ccc(Oc2ccc(C3=NN(C4=NC(=O)CS4)C(c4ccc(O)c(O)c4)C3)cc2)cc1 (stereo not drawn) [Compound 4m, 2-(3-(4-(4-(tert-butyl)phenoxy)phenyl)-5-(3,4-dihydroxyphenyl)-4,5-dihydro-1H-pyrazol-1-yl)thiazol-4(5H)-one]",4.94 ± 0.79
14,"O=C1CSC(N2N=C(c3ccc(Br)cc3)CC2c2ccc(O)c(O)c2)=N1 (stereo not drawn) [Compound 4n, 2-(3-(4-bromophenyl)-5-(3,4-dihydroxyphenyl)-4,5-dihydro-1H-pyrazol-1-yl)thiazol-4(5H)-one]",18.5 ± 2.32

# System: SHP2
# Test: not given
# Conditions: cited from earlier work
row,Compound,IC50 [µM]
1,NC(=O)C(c1ccccc1)S(=O)(=O)O (stereo not drawn) [Sulfophenyl acetic amide],1.5
2,Tautomycetin,2.9

# System: HCT116 cells xenograft
# Test: Anti-tumor activity in vivo, HCT116 xenograft model
# Parameters: species or system BALB/c-nude mice
# Conditions: 4o 25, 50 mg/kg or 5-FU 25 mg/kg, 13 days
# Method: Male BALB/c-nude mice (Jinan Pengyue Experimental Animal Breeding Co., Ltd., Jinan, China), 5 weeks of age, were used. The mice were housed in a specific pathogen-free room with temperature controlled (22 ± 2 °C), humidity (55 ± 10%) and a light/dark cycle of 12 h, providing sterile food and water. The HCT116 cells xenograft model was conducted, and 1 × 10^7 HCT116 cells were subcutaneously injected into the right armpit of mice. The tumor volume of mice was measured every three days to evaluate the tumor growth. When the tumor volume reached about 100 mm^3, the mice were randomly divided into four groups (n = 6), and treated with vehicle (0.5% CMC-Na solution) or 4o (25, 50 mg/kg) by gavage once a day for 13 consecutive days. A total of 25 mg/kg 5-FU was used as a positive control. The body weight of mice was measured every three days. The length (L) and width (W) of tumors were measured by electronic caliper every three days. The volume (V) was calculated as follows: V = (L × W^2)/2. When the tumor volume reached about 1000 mm^3, the tumors were excised. Immunohistochemical analysis were used to evaluate the related protein levels.
row,Compound,Effect on body weight of tumor-bearing mice
1,"O=c1[nH]cc(F)c(=O)[nH]1 [Compound 5-FU, 5-fluorouracil, reference compound]",showed a decrease

# Same assay, conditions: 5-FU 25 mg/kg, positive drug, 13 days
row,Compound,Tumor inhibition rate [%]
1,"O=c1[nH]cc(F)c(=O)[nH]1 [Compound 5-FU, 5-fluorouracil, reference compound]",54.8
